Source: patent US8017612B2, “Piperazine compound and use thereof as a HCV polymerase inhibitor” (priority 2006, dated 2011)
Where a name gives a salt, the structure may show the parent alone.

Experiments:
[1] = molecular target: T1, HCV polymerase (NS5B) type 1a (Hepatitis C virus genotype 1a, UniProt P26664); assay: Assay of enzyme (HCV polymerase) inhibitory activity, type 1a enzyme; format: biochemical, HCV type 1a (cloned from the blood of patients); details: HCV polymerase inhibitory activity (IC50), 1a, type 1a enzyme 1.5 μg/ml, 25° C., 60 min
T1 construct: made in house; host or cells: Escherichia coli (by the 'similar method' of the 1b enzyme)
From the text: (§1) The evaluation of the HCV polymerase inhibitory activity of the compound of the present invention is explained in the following. This polymerase is an enzyme coded for by the non-structural protein region called NS5B on the genome RNA of HCV.
(§2) i) Preparation of Enzyme (HCV Polymerase)
(§3) Using, as a template, a cDNA clone corresponding to the full length genome RNA of HCV BK strain (type 1b) obtained from the blood of a patient with hepatitis C, a region encoding NS5B (J Virol 1991 March, 65(3), 1105-13, 544 amino acids after deletion of 47 amino acids on the C-terminal) was amplified by PCR. The objective gene was prepared by adding a 6 His tag {base pair encoding 6 continuous histidine (His)} to the 3′ end thereof and transformed to Escherichia coli. The Escherichia coli capable of producing the objective protein was cultured. The obtained cells were suspended in a buffer solution and crushed in a microfluidizer. The supernatant was obtained by centrifugation and applied to various column chromatographys {mono-S, Sephacryl S-200 (Pharmacia)}, inclusive of metal chelate chromatography, to give a standard enzyme product.
Standard enzyme products for type 1a (cloned from the blood of patients) were also obtained by a similar method.
(§4) ii) Synthesis of Substrate RNA
(§5) Using a synthetic primer designed based on the sequence of HCV genomic 3′ untranslated region, a DNA fragment (148 bp) containing polyU and 3′X sequence was entirely synthesized and cloned into plasmid pBluescript SK II(+) (Stratagene). The cDNA encoding full length NS5B, which was prepared in i) above, was digested with restriction enzyme KpnI to give a cDNA fragment containing the nucleotide sequence of from the restriction enzyme cleavage site to the termination codon. This cDNA fragment was inserted into the upstream of 3′ untranslated region of the DNA in pBluescript SK II(+) and ligated. The about 450 bp inserted DNA sequence was used as a template in the preparation of substrate RNA. This plasmid was cleaved immediately after the 3′X sequence, linearized and purified by phenol-chloroform treatment and ethanol precipitation to give DNA.
(§6) RNA was synthesized (37° C., 4 hr) by run-off method using this purified DNA as a template, a promoter of pBluescript SK II(+), MEGAscript RNA synthesis kit (Ambion) and T7 RNA polymerase. DNase I was added and the mixture was incubated for 1 hr. The template DNA was removed by decomposition to give a crude RNA product. This crude product was treated with phenol-chloroform and purified by ethanol precipitation to give the objective substrate RNA.
(§7) This RNA was applied to urea denaturation polyacrylamide gel electrophoresis to confirm the quality thereof and preserved at −80° C.
(§8) iii) Assay of Enzyme (HCV Polymerase) inhibitory activity
(§9) A test substance (compound of the present invention) and a reaction mixture (30 μl) having the following composition were reacted at 25° C. for 60 min.
(§10) 10% Trichloroacetic acid and 1% sodium pyrophosphate solution (150 μl) at 4° C. was added to this reaction mixture to stop the reaction. The reaction mixture was left standing at 4° C. for 15 min to insolubilize RNA. This RNA was trapped on a glass filter (PerkinElmer, GF/B) upon filtration by suction. This filter was washed with a solution containing 1% trichloroacetic acid and 0.1% sodium pyrophosphate, washed with 90% ethanol and dried. A liquid scintillation cocktail (PerkinElmer) was added and the radioactivity of RNA synthesized by the enzyme reaction was measured on a liquid scintillation counter.
The HCV polymerase inhibitory activity (IC50) of the compound of the present invention was calculated from the values of radioactivity of the enzyme reaction with and without the test substance. […]

[2] = molecular target: T2, HCV polymerase (NS5B) type 1b (Hepatitis C virus genotype 1b, UniProt P26663); assay: Assay of enzyme (HCV polymerase) inhibitory activity, type 1b enzyme; format: biochemical, HCV BK strain (type 1b); details: HCV polymerase inhibitory activity (IC50), 1b, type 1b enzyme 0.5 μg/ml, 25° C., 60 min
T2 construct: a region encoding NS5B (J Virol 1991 March, 65(3), 1105-13, 544 amino acids after deletion of 47 amino acids on the C-terminal); 6xHis (C); made in house; host or cells: Escherichia coli
From the text: as §1, §2, §3, §4, §5, §6, §7, §8, §9, §10
The HCV polymerase inhibitory activity (IC50) of the compound of the present invention was calculated from the values of radioactivity of the enzyme reaction with and without the test substance.
Reaction mixture: HCV polymerase (type 1b 0.5 μg/ml or type 1a 1.5 μg/m) obtained in i), substrate RNA (5 μg/ml) obtained in ii), ATP (50 μM), GTP (50 μM), CTP (50 μM), UTP (2 μM), [5,6-^3H]UTP (30-60 Ci/mmol (Amersham Biosciences), 1 μCi) 20 mM Tris-HCl (pH 7.5), EDTA (1 mM), MgCl2 (5 mM), NaCl (50 mM), DTT (1 mM), BSA (0.01%)

SMILES | IC50 [1] [nM] | IC50 [2] [nM]
CC(C)c1ccc(CNC(=O)[C@H]2CNCCN2S(=O)(=O)c2ccc(C(F)(F)F)cc2)cc1 [Example 1, (R)-1-(4-trifluoromethyl-benzenesulfonyl)-piperazine-2-carboxylic acid 4-isopropyl-benzylamide hydrochloride] | > 1000 | > 1000
CC(C)c1ccc(CNC(=O)[C@H]2CN(C(=O)Cc3ccncc3)CCN2S(=O)(=O)c2ccc(C(F)(F)F)cc2)cc1 [Example 2, (R)-4-(2-pyridin-4-yl-acetyl)-1-(4-trifluoromethyl-benzenesulfonyl)-piperazine-2-carboxylic acid 4-isopropyl-benzylamide] | 100 to 1000 | 100 to 1000
CC(C)c1ccc(CNC(=O)[C@H]2CN(C(=O)Nc3ccncc3)CCN2S(=O)(=O)c2ccc(C(F)(F)F)cc2)cc1 [Example 3, (R)-4-(4-trifluoromethyl-benzenesulfonyl)-piperazine-1,3-dicarboxylic acid 3-(4-isopropyl-benzylamide) 1-pyridin-4-ylamide] | < 100 | < 100
CC(C)c1ccc(CNC(=O)[C@H]2CN(C(N)=S)CCN2S(=O)(=O)c2ccc(C(F)(F)F)cc2)cc1 [Example 4, (R)-4-thiocarbamoyl-1-(4-trifluoromethyl-benzenesulfonyl)-piperazine-2-carboxylic acid 4-isopropyl-benzylamide] | 100 to 1000 | 100 to 1000
Cc1nc(N2CCN(S(=O)(=O)c3ccc(C(F)(F)F)cc3)[C@@H](C(=O)NCc3ccc(C(C)C)cc3)C2)sc1C(=O)OC(C)(C)C [Example 5, 2-[(R)-3-(4-isopropyl-benzylcarbamoyl)-4-(4-trifluoromethyl-benzenesulfonyl)-piperazin-1-yl]-4-methyl-thiazole-5-carboxylic acid tert-butyl ester] | > 1000 | > 1000
Cc1nc(N2CCN(S(=O)(=O)c3ccc(C(F)(F)F)cc3)[C@@H](C(=O)NCc3ccc(C(C)C)cc3)C2)sc1C(=O)O [Example 6, 2-[(R)-3-(4-isopropyl-benzylcarbamoyl)-4-(4-trifluoromethyl-benzenesulfonyl)-piperazin-1-yl]-4-methyl-thiazole-5-carboxylic acid] | < 100 | < 100
Cc1nc(N2CCN(S(=O)(=O)c3ccc(C(F)(F)F)cc3)[C@@H](C(=O)NCc3ccc(C(C)C)cc3)C2)sc1C(N)=O [Example 7, (R)-4-(5-carbamoyl-4-methyl-thiazol-2-yl)-1-(4-trifluoromethyl-benzenesulfonyl)-piperazine-2-carboxylic acid 4-isopropyl-benzylamide] | < 100 | < 100
COC(=O)c1cnc(N2CCN(S(=O)(=O)c3ccc(C(F)(F)F)cc3)[C@@H](C(=O)NCc3ccc(C(C)C)cc3)C2)cn1 [Example 8, (R)-3-(4-isopropyl-benzylcarbamoyl)-4-(4-trifluoromethyl-benzenesulfonyl)-3,4,5,6-tetrahydro-2H-[1,2′]bipyrazinyl-5′-carboxylic acid methyl ester] | < 100 | < 100
CC(C)c1ccc(CNC(=O)[C@H]2CN(c3cnc(C(=O)O)cn3)CCN2S(=O)(=O)c2ccc(C(F)(F)F)cc2)cc1 [Example 9, (R)-3-(4-isopropyl-benzylcarbamoyl)-4-(4-trifluoromethyl-benzenesulfonyl)-3,4,5,6-tetrahydro-2H-[1,2′]bipyrazinyl-5′-carboxylic acid] | < 100 | < 100
CC(=O)N1CCN(S(=O)(=O)c2ccc(OC(F)(F)F)c(I)c2)[C@@H](C(=O)NCc2ccc(C(C)C)cc2)C1 [Example 10, (R)-4-acetyl-1-(3-iodo-4-trifluoromethoxy-benzenesulfonyl)-piperazine-2-carboxylic acid 4-isopropyl-benzylamide] | < 100 | < 100
CC(=O)N1CCN(S(=O)(=O)c2ccc(OC(F)(F)F)c(CCCC(=O)O)c2)[C@@H](C(=O)NCc2ccc(C(C)C)cc2)C1 [Example 11, 4-{5-[(R)-4-acetyl-2-(4-isopropyl-benzylcarbamoyl)-piperazine-1-sulfonyl]-2-trifluoromethoxy-phenyl}-butyric acid] | < 100 | < 100
CCCc1ccc(CNC(=O)[C@H]2CN(C(C)=O)CCN2S(=O)(=O)c2ccc(C(C)C)cc2)c(C)c1 [Example 12, (R)-4-acetyl-1-(4-isopropyl-benzenesulfonyl)-piperazine-2-carboxylic acid 2-methyl-4-propyl-benzylamide] | < 100 | < 100
Cc1nc(N2CCN(S(=O)(=O)c3ccc(OC(F)(F)F)cc3)[C@@H](C(=O)NCc3ccc(C(C)C)nc3)C2)sc1C(=O)O [Example 13, 2-[(R)-3-[(6-isopropyl-pyridin-3-ylmethyl)-carbamoyl]-4-(4-trifluoromethoxy-benzenesulfonyl)-piperazin-1-yl]-4-methyl-thiazole-5-carboxylic acid] | < 100 | < 100
CCCc1ccc(CNC(=O)[C@H]2CN(c3nc(C)c(C(=O)O)s3)CCN2S(=O)(=O)c2ccc(OC(F)(F)F)cc2F)cc1 [Example 14, 2-[(R)-4-(2-fluoro-4-trifluoromethoxy-benzenesulfonyl)-3-(4-propyl-benzylcarbamoyl)-piperazin-1-yl]-4-methyl-thiazole-5-carboxylic acid] | < 100 | < 100
CC(C)c1ccc(S(=O)(=O)N2CCNCC2C(=O)NCc2ccc(C(F)(F)F)cc2)cc1 (centres unmarked) [Example 15, 1-(4-isopropyl-benzenesulfonyl)-piperazine-2-carboxylic acid 4-trifluoromethyl-benzylamide hydrochloride] | > 1000 | > 1000
CC(C)c1ccc(S(=O)(=O)N2CCN(C)CC2C(=O)NCc2ccc(C(F)(F)F)cc2)cc1 (centres unmarked) [Example 16, 1-(4-isopropyl-benzenesulfonyl)-4-methyl-piperazine-2-carboxylic acid 4-trifluoromethyl-benzylamide] | > 1000 | > 1000
CC(C)c1ccc(S(=O)(=O)N2CCN(S(C)(=O)=O)CC2C(=O)NCc2ccc(C(F)(F)F)cc2)cc1 (centres unmarked) [Example 17, 1-(4-isopropyl-benzenesulfonyl)-4-methanesulfonyl-piperazine-2-carboxylic acid 4-trifluoromethyl-benzylamide] | > 1000 | > 1000
CC(=O)N1CCN(S(=O)(=O)c2ccc(C(C)C)cc2)[C@@H](C(=O)NCc2ccc(C(F)(F)F)cc2)C1 [Example 18, (R)-4-acetyl-1-(4-isopropyl-benzenesulfonyl)-piperazine-2-carboxylic acid 4-trifluoromethyl-benzylamide] | 100 to 1000 | 100 to 1000
CC(=O)N1CCN(S(=O)(=O)c2ccc(C(C)C)cc2)[C@H](C(=O)NCc2ccc(C(F)(F)F)cc2)C1 [Example 19, (S)-4-acetyl-1-(4-isopropyl-benzenesulfonyl)-piperazine-2-carboxylic acid 4-trifluoromethyl-benzylamide] | > 1000 | > 1000
